From ChEMBL document CHEMBL1125043, “Synthesis and biological activity of an acyclic analogue of 5,6,7,8-tetrahydrofolic acid, N-[4-[[3-(2,4-diamino-1,6-dihydro-6-oxo-5- pyrimidinyl)propyl]amino]-benzoyl]-L-glutamic acid” (J Med Chem, 1990)

Assays:
Mus musculus = species: Mus musculus; assay: Evaluated for inhibitory activity on 10-formyltetrahydrofolate synthetase(L cell) at folate substrate concentration of 100 uM
[1] = molecular target: T1, C-1-tetrahydrofolate synthase, cytoplasmic (Mus musculus) (UniProt Q922D8); assay: Evaluated for inhibitory activity on 5,10-Methenyl Tetrahydrofolate Cyclohydrolase(L cell) at folate substrate concentration of 100 uM
T1 sequence (whole entry): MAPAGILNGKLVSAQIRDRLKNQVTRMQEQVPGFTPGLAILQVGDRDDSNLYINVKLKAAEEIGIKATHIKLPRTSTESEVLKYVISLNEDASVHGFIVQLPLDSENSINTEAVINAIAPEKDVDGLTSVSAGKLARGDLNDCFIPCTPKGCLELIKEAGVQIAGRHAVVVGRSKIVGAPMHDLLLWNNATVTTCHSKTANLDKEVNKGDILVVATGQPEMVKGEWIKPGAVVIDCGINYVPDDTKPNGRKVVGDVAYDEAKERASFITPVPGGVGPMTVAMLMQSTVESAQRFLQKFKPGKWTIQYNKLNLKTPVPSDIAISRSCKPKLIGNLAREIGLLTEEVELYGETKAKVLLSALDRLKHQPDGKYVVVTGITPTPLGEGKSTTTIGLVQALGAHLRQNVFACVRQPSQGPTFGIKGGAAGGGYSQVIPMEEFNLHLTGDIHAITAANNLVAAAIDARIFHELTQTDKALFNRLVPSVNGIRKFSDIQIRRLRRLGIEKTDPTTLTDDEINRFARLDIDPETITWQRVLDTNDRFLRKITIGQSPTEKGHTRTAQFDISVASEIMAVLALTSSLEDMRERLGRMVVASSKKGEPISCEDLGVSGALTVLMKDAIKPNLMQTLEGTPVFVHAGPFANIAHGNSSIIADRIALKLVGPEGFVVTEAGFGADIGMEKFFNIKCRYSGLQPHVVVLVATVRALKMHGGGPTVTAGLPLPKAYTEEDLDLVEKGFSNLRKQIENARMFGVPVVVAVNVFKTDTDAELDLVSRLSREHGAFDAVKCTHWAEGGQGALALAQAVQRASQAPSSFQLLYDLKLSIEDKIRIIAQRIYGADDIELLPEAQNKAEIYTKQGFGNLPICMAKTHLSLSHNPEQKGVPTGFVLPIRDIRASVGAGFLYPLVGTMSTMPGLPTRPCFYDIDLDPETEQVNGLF

[2] = molecular target: T1, C-1-tetrahydrofolate synthase, cytoplasmic (Mus musculus); assay: Evaluated for inhibitory activity on 5,10-Methylene Tetrahydrofolate Cyclohydrolase(L cell) at folate substrate concentration of 100 uM
Detroit 98 = assay: Evaluated in vitro for ability to inhibit the Detroit 98 cell lines; format: functional, cell-based; conditions: Homo sapiens
[3] = molecular target: T2, Serine hydroxymethyltransferase, cytosolic (Mus musculus) (UniProt P50431); assay: Evaluated for inhibitory activity on Serine hydroxymethyl transferase (Lcell) at folate substrate concentration of 160 uM
T2 sequence (whole entry): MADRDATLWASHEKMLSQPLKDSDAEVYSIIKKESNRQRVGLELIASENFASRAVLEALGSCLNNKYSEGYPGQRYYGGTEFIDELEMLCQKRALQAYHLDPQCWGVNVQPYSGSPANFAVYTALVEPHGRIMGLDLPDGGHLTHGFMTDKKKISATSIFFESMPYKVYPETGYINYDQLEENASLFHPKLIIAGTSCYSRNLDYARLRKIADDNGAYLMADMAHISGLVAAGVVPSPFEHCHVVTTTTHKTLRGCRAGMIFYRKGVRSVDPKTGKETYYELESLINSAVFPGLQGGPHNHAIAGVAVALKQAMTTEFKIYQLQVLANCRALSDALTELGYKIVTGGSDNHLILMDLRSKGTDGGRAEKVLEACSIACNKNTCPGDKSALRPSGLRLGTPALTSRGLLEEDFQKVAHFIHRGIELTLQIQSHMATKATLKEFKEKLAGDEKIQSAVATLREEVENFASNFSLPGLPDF

[4] = molecular target: Methionine synthase (Mus musculus) (UniProt A6H5Y3); assay: Evaluated for inhibitory activity on Methionine synthase(L cell) at folate substrate concentration of 100 uM
[5] = molecular target: T3, Dihydrofolate reductase (Rattus norvegicus) (UniProt Q920D2); assay: Evaluated for inhibitory activity on Dihydrofolate reductase(rat liver) at folate substrate concentration of 45 uM
T3 sequence (whole entry): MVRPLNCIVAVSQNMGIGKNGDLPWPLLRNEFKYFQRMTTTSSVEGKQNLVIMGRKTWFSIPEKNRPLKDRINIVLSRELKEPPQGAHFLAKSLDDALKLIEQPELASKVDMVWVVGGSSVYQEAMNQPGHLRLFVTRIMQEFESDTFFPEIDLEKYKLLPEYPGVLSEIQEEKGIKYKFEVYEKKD

L cells [6] = assay: Evaluated in vitro for ability to inhibit the L cell lines.; format: functional, cell-based; conditions: Mus musculus, L929
L cells [7] = assay: Evaluated for reversal of L cell inhibition, where reversal of toxicity was evaluated by the addition of Hypoxanthine (37 uM); format: functional, Mus musculus, L929
Sus scrofa [8] = species: Sus scrofa; assay: Relative Vmax for its activation for Hog Liver Folyl-polyglutamate synthase was determined
L cells [9] = assay: Evaluated for reversal of L cell inhibition, where reversal of toxicity was evaluated by the addition of Thymidine + Hypoxanthine; format: functional, Mus musculus, L929
Sus scrofa [10] = species: Sus scrofa; assay: Apparent Km in uM for its activation for Hog Liver Folyl-polyglutamate synthase was determined
[11] = Ratio of app Km to ral Vmax
L cells [12] = assay: Evaluated for reversal of L cell inhibition, where reversal of toxicity was evaluated by the addition of Leucovorin (0.2 uM); format: functional, Mus musculus, L929
L cells [13] = assay: Evaluated for reversal of L cell inhibition, where reversal of toxicity was evaluated by the addition of Thymidine (20 uM); format: functional, Mus musculus, L929
[14] = Hexaglutamyl homologue inhibition activity against the Glycinamide ribonucleotide transformylase (GAR-TFase) was determined against L cell; format: cell-based, Mus musculus
P388 [15] = assay: Effect on P388 tumor cell growth in mice. The percentage of increased life span was determined administered 75 mg/kg schedule - QD,days1,5,9; format: functional; conditions: Mus musculus
[16] = molecular target: T1, C-1-tetrahydrofolate synthase, cytoplasmic (Mus musculus); assay: Evaluated for inhibitory activity on 5,10-methylenetetrahydrofolate dehydrogenase(L cell) at folate substrate concentration of 100 uM
L cells [17] = assay: Evaluated for reversal of L cell inhibition, where reversal of toxicity was evaluated by the addition of Thymidine Hypoxanthine; format: functional, Mus musculus, L929
SW480 = assay: Antitumor activity on SW 480 colon adenocarcinoma cell lines; format: functional, cell-based; conditions: Homo sapiens
[18] = Hexaglutamyl homologue inhibition activity against the Glycinamide ribonucleotide transformylase (GAR-TFase) was determined against hog liver; format: tissue-based, Sus scrofa
P388 [19] = assay: Effect on P388 tumor cell growth in mice. The percentage of increased life span was determined administered 5 mg/kg schedule - t.i.d., days 1-4; format: functional; conditions: Mus musculus, P388, intraduodenal
[20] = Inhibition activity against Glycinamide ribonucleotide transformylase (GAR-TFase) against L cell; format: cell-based, Mus musculus
A-427 = assay: Antitumor activity on A-427 lung carcinoma cell lines; format: functional, cell-based; conditions: Homo sapiens
[21] = Inhibition activity against Glycinamide ribotide formyltransferase against L cell; format: cell-based
WiDr = assay: Antitumor activity on WiDr colon adenocarcinoma cell lines; format: functional, cell-based; conditions: Homo sapiens
[22] = Triglutamyl homologue inhibition activity against Glycinamide ribonucleotide transformylase (GAR-TFase)was determined against L cell; format: cell-based, Mus musculus
MCF7 = assay: Antitumor activity on MCF-7 breast adenocarcinoma cell lines; format: functional, cell-based; conditions: Homo sapiens
CCRF-CEM = assay: Antitumor activity on CCRF-CEM T-cell acute lymphoblastic leukemia cell lines; format: functional, cell-based; conditions: Homo sapiens
[23] = Diglutamyl homologue inhibition activity against the Glycinamide ribonucleotide transformylase (GAR-TFase)was determined against L cell; format: cell-based, Mus musculus
[24] = system: Thymidylate synthase (Bos taurus); assay: Evaluated for inhibitory activity on Thymidylate synthase(calf thymus) at folate substrate concentration of 200 uM
MOLT-4 = assay: Antitumor activity on MOLT-4 T-cell acute lymphoblastic leukemia cell lines; format: functional, cell-based; conditions: Homo sapiens
P388 [25] = assay: Effect on P388 tumor cell growth in mice. The percentage of increased life span was determined administered 10 mg/kg schedule - t.i.d., days 1-4; format: functional; conditions: Mus musculus, P388, intraduodenal
P388 [26] = assay: Effect on P388 tumor cell growth in mice. The percentage of increased life span was determined administered 7.5 mg/kg schedule - b.i.d., days 1-3; format: functional; conditions: Mus musculus, P388, intraduodenal
[27] = molecular target: T4, Bifunctional purine biosynthesis protein ATIC (Mus musculus, UniProt Q9CWJ9); assay: Inhibition activity against AICAR formyltransferase determined against L cell; format: cell-based
T4 sequence (Q9CWJ9 whole entry): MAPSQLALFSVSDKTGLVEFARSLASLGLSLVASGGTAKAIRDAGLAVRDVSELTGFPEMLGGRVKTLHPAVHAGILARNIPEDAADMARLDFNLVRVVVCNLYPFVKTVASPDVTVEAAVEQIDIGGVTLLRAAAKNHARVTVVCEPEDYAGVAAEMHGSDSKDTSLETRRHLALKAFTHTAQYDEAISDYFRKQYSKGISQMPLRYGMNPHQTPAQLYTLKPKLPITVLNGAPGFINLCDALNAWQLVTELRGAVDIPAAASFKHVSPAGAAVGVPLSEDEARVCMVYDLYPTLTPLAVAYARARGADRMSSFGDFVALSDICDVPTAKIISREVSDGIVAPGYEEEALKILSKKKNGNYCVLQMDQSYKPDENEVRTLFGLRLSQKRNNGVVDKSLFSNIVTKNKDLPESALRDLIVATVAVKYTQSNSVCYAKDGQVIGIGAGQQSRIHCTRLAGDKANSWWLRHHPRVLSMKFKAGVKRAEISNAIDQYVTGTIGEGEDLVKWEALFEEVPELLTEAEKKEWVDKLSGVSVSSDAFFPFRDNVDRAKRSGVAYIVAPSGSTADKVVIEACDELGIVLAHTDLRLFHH

[28] = molecular target: T5, Bifunctional purine biosynthesis protein ATIC (Homo sapiens, UniProt P31939); assay: Inhibition activity against AICAR formyltransferase determined against MOLT-4; format: cell-based
[29] = molecular target: T5, Bifunctional purine biosynthesis protein ATIC; assay: Hexaglutamyl homologue inhibition activity against the AICAR formyltransferase was determined against MOLT-4; format: cell-based
[30] = molecular target: T4, Bifunctional purine biosynthesis protein ATIC; assay: Triglutamyl homologue inhibition activity against AICAR formyltransferase was determined against L cell; format: cell-based
[31] = molecular target: T4, Bifunctional purine biosynthesis protein ATIC; assay: Hexaglutamyl homologue inhibition activity against the AICAR formyltransferase was determined against L cell; format: cell-based
[32] = molecular target: T4, Bifunctional purine biosynthesis protein ATIC; assay: Diglutamyl homologue inhibition activity against the AICAR formyltransferase was determined against L cell; format: cell-based

Methionine synthase (Mus musculus), sequence (A6H5Y3 whole entry): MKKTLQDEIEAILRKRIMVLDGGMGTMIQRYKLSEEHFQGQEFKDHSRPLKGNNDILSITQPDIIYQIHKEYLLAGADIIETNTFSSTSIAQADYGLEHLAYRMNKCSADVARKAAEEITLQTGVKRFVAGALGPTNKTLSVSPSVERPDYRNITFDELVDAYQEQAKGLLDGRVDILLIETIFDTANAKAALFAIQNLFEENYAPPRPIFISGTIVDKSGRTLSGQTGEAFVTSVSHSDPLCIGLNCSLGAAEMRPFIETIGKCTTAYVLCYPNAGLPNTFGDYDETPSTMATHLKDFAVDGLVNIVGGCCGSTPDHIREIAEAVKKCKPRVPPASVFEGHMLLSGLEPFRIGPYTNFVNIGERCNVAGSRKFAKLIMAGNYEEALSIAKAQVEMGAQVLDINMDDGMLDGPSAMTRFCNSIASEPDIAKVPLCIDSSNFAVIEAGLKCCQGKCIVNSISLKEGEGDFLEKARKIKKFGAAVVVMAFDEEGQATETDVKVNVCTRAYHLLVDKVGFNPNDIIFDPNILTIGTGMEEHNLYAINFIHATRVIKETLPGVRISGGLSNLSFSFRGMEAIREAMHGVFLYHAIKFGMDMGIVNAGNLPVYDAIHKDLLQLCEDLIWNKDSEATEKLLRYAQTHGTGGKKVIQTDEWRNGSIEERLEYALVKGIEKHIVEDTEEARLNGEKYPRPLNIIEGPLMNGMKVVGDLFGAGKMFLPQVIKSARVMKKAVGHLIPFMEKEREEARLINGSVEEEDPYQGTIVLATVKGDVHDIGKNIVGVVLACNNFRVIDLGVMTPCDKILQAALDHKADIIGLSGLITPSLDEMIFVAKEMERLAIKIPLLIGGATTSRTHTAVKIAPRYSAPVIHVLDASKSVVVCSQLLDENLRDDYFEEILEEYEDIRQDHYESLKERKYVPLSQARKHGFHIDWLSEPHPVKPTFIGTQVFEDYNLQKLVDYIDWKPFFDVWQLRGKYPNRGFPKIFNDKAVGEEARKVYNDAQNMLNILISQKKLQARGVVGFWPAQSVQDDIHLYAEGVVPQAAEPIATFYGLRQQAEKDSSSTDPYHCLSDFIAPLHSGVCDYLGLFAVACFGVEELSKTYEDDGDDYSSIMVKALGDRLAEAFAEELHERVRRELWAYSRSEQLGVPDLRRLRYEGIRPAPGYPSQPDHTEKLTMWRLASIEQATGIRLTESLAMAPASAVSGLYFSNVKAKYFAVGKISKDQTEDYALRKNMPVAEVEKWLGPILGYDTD
T5 sequence (P31939 whole entry): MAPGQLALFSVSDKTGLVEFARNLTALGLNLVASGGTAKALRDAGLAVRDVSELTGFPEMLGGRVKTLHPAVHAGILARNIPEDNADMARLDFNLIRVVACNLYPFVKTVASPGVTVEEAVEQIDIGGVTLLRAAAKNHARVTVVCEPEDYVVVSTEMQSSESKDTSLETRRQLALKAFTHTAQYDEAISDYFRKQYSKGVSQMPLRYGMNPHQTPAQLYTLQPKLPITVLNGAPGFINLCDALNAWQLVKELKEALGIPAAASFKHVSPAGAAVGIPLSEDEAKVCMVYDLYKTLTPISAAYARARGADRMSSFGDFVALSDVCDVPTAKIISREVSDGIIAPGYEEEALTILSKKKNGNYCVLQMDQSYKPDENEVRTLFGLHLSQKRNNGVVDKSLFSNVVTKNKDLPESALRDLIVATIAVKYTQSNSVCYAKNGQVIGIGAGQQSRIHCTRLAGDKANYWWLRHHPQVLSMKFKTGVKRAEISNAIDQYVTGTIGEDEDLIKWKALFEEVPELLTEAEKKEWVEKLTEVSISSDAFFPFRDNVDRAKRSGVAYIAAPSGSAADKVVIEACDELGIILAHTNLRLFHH

Compound: Nc1nc(N)c(CCCN(C=O)c2ccc(C(=O)NC(CCC(=O)O)C(=O)O)cc2)c(O)n1 (stereo not drawn)
- inhibition (Mus musculus): 0%
- inhibition [1]: 34%
- inhibition [2]: 0%
- IC50 (Detroit 98): 210 nM
- inhibition [3]: 13%
- inhibition [4]: 0%
- inhibition [5]: 50%

Compound: Nc1nc(N)c(CCCNc2ccc(C(=O)NCC(=O)O)cc2)c(O)n1
- IC50 (L cells [6]): > 100000 nM
- IC50 (Detroit 98): > 100000 nM

Compound: Nc1nc(N)c2nc(CNc3ccc(C(=O)N[C@@H](CCC(=O)O)C(=O)O)cc3)cnc2n1 [AMINOPTERIN]
- Inhibition (L cells [7]): 79%
- Relative Vmax (Sus scrofa [8]): 144%
- Inhibition (L cells [9]): 0%
- IC50 (L cells [6]): 2.3 nM
- Km (Sus scrofa [10]): 24.4 µM
- Ratio [11]: 5.9
- Inhibition (L cells [12]): 6%
- Inhibition (L cells [13]): 68%
- IC50 (Detroit 98): 2 nM

Compound: Nc1nc(N)c(CCCNc2ccc(C(=O)N[C@@H](CCC(=O)O)C(=O)O)cc2)c(O)n1
- IC50 [14]: 80 nM
- Inhibition (L cells [7]): 0%
- ILS at 75 mg/kg (P388 [15]): 0%
- Relative Vmax (Sus scrofa [8]): 100%
- IC50 (L cells [6]): 88 nM
- Km (Sus scrofa [10]): 6.7 µM
- inhibition [16]: 0%
- Ratio [11]: 14.9
- Inhibition (L cells [17]): 0%
- IC50 (SW480): 50 nM
- inhibition (Mus musculus): 0%
- IC50 [18]: 260 nM
- inhibition [1]: 5%
- Inhibition (L cells [12]): 6%
- Inhibition (L cells [13]): 59%
- IC50 (Detroit 98): 110 nM
- ILS at 5 mg/kg (P388 [19]): 22%
- inhibition [3]: 7%
- IC50 [20]: 3000 nM
- IC50 (A-427): 43 nM
- IC50 [21]: 2600 nM
- IC50 (WiDr): 45 nM
- IC50 [22]: 340 nM
- inhibition [4]: 0%
- IC50 (MCF7): 37 nM
- IC50 (CCRF-CEM): 47 nM
- IC50 [23]: 400 nM
- inhibition [5]: 0%
- inhibition [24]: 0%
- IC50 (MOLT-4): 58 nM
- ILS at 10 mg/kg (P388 [25]): 80%
- ILS at 7.5 mg/kg (P388 [26]): 40%

Compound: Nc1nc(N)c(CCCNc2ccc(C(=O)N[C@@H](CCC(=O)O)C(=O)O)cc2)c(=O)[nH]1
- IC50 [27]: 200000 nM
- IC50 [28]: 94000 nM
- IC50 [29]: 700 nM
- IC50 [30]: 1900 nM
- IC50 [31]: 700 nM
- IC50 [32]: 9400 nM

Compound: CN(CCCc1c(N)nc(N)nc1O)c1ccc(C(=O)NC(CCC(=O)O)C(=O)O)cc1 (stereo not drawn)
- IC50 (L cells [6]): 280 nM
- IC50 (Detroit 98): 2000 nM
